IC50 data for 43 molecules are collected here from patent US11731944B2, “SARS-CoV-2 inhibitors for treating coronavirus infections” (priority 2021, dated 2023).

pIC50: −log10 of the molar value.

The target in the first experiment is SARS-CoV-2 MPRO (Severe acute respiratory syndrome coronavirus 2 (2019-nCoV) (SARS-CoV-2), UniProt P0DTD1). Nature of the experiment: SARS-CoV-2 Mpro enzymatic assay (FRET substrate cleavage). Type of experiment: biochemical. The conditions noted are these: C-His6-tagged SARS-CoV-2 MPRO 25 nM, 30 min pre-incubation at RT, 60 min at 30° C., 10 doses from 25 μM; read-out: M pro IC50.
Usually pIC50 stands for the negative decadic logarithm of the IC50, by convention in mol/L. With `C[C@@](C(=O)NC1CCOCC1)(c1cncnc1)N(C(=O)[C@H](F)Cl)c1ccc(OC(F)(F)F)cc1` [Example 5b], the negative logarithm of the IC50 (pIC50) was 5.00 to 6.00.
Same read-out and setting: then `Cn1ccc([C@](C)(C(=O)NC2CCC(F)(F)CC2)N(C(=O)[C@H](F)Cl)c2ccc(OC(F)(F)F)cc2)cc1=O` [Example 13a], with less than 5.00; and `C[C@](C(=O)NC1CCOCC1)(c1cncc(F)c1)N(C(=O)[C@H](F)Cl)c1ccc(OC(F)(F)F)cc1` [Example 14a], with more than 7.00; and `C[C@@](C(=O)NC1CCOCC1)(c1cncc(F)c1)N(C(=O)[C@H](F)Cl)c1ccc(OC(F)(F)F)cc1` [Example 14b], with less than 5.00.
Still for that read-out and setting: the value for `C[C@](C(=O)NC1CC(F)(F)C1)(c1cncnc1)N(C(=O)[C@H](F)Cl)c1ccc(OC(F)(F)F)cc1` [Example 18a] was more than 7.00; that for `C[C@@](C(=O)NC1CC(F)(F)C1)(c1cncnc1)N(C(=O)[C@H](F)Cl)c1ccc(OC(F)(F)F)cc1` [Example 18b] was 5.00 to 6.00; that for `C[C@](C(=O)NC1CCC(F)(F)CC1)(c1cncnc1)N(C(=O)[C@H](F)Cl)c1ccc(S(F)(F)(F)(F)F)cc1` [Example 22a] was more than 7.00.
As for `C[C@@](C(=O)NC1CCC(F)(F)CC1)(c1cncnc1)N(C(=O)[C@H](F)Cl)c1ccc(S(F)(F)(F)(F)F)cc1` [Example 22b], the pIC50 was 5.00 to 6.00.
With `C[C@](C(=O)NC1CCOCC1)(c1cncnc1)N(C(=O)[C@H](F)Cl)c1ccc(S(F)(F)(F)(F)F)cc1` [Example 23a], the pIC50 is 5.00 to 6.00.
Same read-out and setting: then `C[C@@](C(=O)NC1CCOCC1)(c1cncnc1)N(C(=O)[C@H](F)Cl)c1ccc(S(F)(F)(F)(F)F)cc1` [Example 23b], with more than 7.00.
As for `C[C@](C(=O)NC1CCC(F)(F)CC1)(c1cncnc1)N(C(=O)[C@H](F)Cl)c1ccc(C2(C(F)(F)F)CC2)cc1` [Example 28a], the negative logarithm of the IC50 (pIC50) is more than 7.00.
As for `C[C@@](C(=O)NC1CCC(F)(F)CC1)(c1cncnc1)N(C(=O)[C@H](F)Cl)c1ccc(C2(C(F)(F)F)CC2)cc1` [Example 28b], the pIC50 was less than 5.00.
On the same count and under the same terms, then `C[C@](C(=O)NC1CCOCC1)(c1cncnc1)N(C(=O)[C@H](F)Cl)c1ccc(C2(C(F)(F)F)CC2)cc1` [Example 29a], with 6.00 to 7.00; and `C[C@@](C(=O)NC1CCOCC1)(c1cncnc1)N(C(=O)[C@H](F)Cl)c1ccc(C2(C(F)(F)F)CC2)cc1` [Example 29b], with less than 5.00; and `C[C@@](C(=O)NC1CCOCC1)(c1cncnc1)N(C(=O)[C@H](F)Cl)c1ccc(OC(F)(F)C(F)(F)F)cc1` [Example 32b], with 5.00 to 6.00.
The same measure, in the same setting: the value for `C[C@@](C(=O)NC1CCC(F)(F)CC1)(c1cncnc1)N(C(=O)[C@H](F)Cl)c1ccc(SC(F)(F)F)cc1` [Example 33b] was 6.00 to 7.00.
Same read-out and setting: the value for `C[C@](C(=O)NC1CCOCC1)(c1cncnc1)N(C(=O)[C@H](F)Cl)c1ccc(SC(F)(F)F)cc1` [Example 34a] was more than 7.00; that for `C[C@@](C(=O)NC1CCOCC1)(c1cncnc1)N(C(=O)[C@H](F)Cl)c1ccc(SC(F)(F)F)cc1` [Example 34b] was less than 5.00.
For the molecule `C[C@](C(=O)NCCc1cccc(F)c1)(c1cncnc1)N(C(=O)[C@H](F)Cl)c1ccc(OC(F)(F)F)cc1` [Example 36a], the negative logarithm of the IC50 (pIC50) was more than 7.00.
`C[C@@](C(=O)NCCc1cccc(F)c1)(c1cncnc1)N(C(=O)[C@H](F)Cl)c1ccc(OC(F)(F)F)cc1` [Example 36b]: the pIC50 is less than 5.00.
With `CC1(C)COCC[C@H]1NC(=O)[C@@](C)(c1cncnc1)N(C(=O)[C@H](F)Cl)c1ccc(OC(F)(F)F)cc1` [Example 76a], the pIC50 is more than 7.00.
On to `CC1(C)COCC[C@@H]1NC(=O)[C@@](C)(c1cncnc1)N(C(=O)[C@H](F)Cl)c1ccc(OC(F)(F)F)cc1` [Example 76b], for which the pIC50 is 6.00 to 7.00.
On to `CC1(C)C[C@@H](NC(=O)[C@@](C)(c2cncnc2)N(C(=O)[C@H](F)Cl)c2ccc(OC(F)(F)F)cc2)CCO1` [Example 77b], for which the pIC50 is more than 7.00.
The same measure, in the same setting: then `C[C@](C(=O)NC1CCC(F)(F)CC1)(c1cncnc1)N(C(=O)[C@H](F)Cl)c1ccc(OC(F)(F)C(F)(F)F)cc1` [Example 90a], with more than 7.00; and `C[C@@](C(=O)NC1CCC(F)(F)CC1)(c1cncnc1)N(C(=O)[C@H](F)Cl)c1ccc(OC(F)(F)C(F)(F)F)cc1` [Example 90b], with 6.00 to 7.00; and `C[C@](C(=O)NC1CCC(F)(F)CC1)(c1cncnc1)N(C(=O)[C@H](F)Cl)c1ccc(OC(F)(F)Cl)cc1` [Example 92a], with more than 7.00.
On the same count and under the same terms, the value for `C[C@@](C(=O)NC1CCC(F)(F)CC1)(c1cncnc1)N(C(=O)[C@H](F)Cl)c1ccc(OC(F)(F)Cl)cc1` [Example 92b] was 6.00 to 7.00.
The same measure, in the same setting: the value for `C[C@](C(=O)NC1CCC(F)(F)CC1)(c1cncc(F)c1)N(C(=O)[C@H](F)Cl)c1ccc(SC(F)(F)F)cc1` [Example 95a] was more than 7.00; that for `C[C@@](C(=O)NC1CCC(F)(F)CC1)(c1cncc(F)c1)N(C(=O)[C@H](F)Cl)c1ccc(SC(F)(F)F)cc1` [Example 95b] was 5.00 to 6.00.
For `C[C@](C(=O)NC1CCOCC1)(c1cncc(F)c1)N(C(=O)[C@H](F)Cl)c1ccc(S(F)(F)(F)(F)F)cc1` [Example 97a], the negative-log IC50 (pIC50) is more than 7.00.
Consider `C[C@@](C(=O)NC1CCOCC1)(c1cncc(F)c1)N(C(=O)[C@H](F)Cl)c1ccc(S(F)(F)(F)(F)F)cc1` [Example 97b], for which the negative logarithm of the IC50 (pIC50) was less than 5.00.
Still for that read-out and setting: the value for `C[C@](C(=O)NC1CCOCC1)(c1cncc(F)c1)N(C(=O)[C@H](F)Cl)c1ccc(OC(F)(F)Cl)cc1` [Example 98a] was more than 7.00.
Same read-out and setting: the value for `C[C@@](C(=O)NC1CCOCC1)(c1cncc(F)c1)N(C(=O)[C@H](F)Cl)c1ccc(OC(F)(F)Cl)cc1` [Example 98b] was 5.00 to 6.00.
The same measure, in the same setting: then `C[C@](C(=O)NC1CCC(F)(F)CC1)(c1cncc(F)c1)N(C(=O)[C@H](F)Cl)c1ccc(OC(F)(F)Cl)cc1` [Example 99a], with more than 7.00; and `C[C@@](C(=O)NC1CCC(F)(F)CC1)(c1cncc(F)c1)N(C(=O)[C@H](F)Cl)c1ccc(OC(F)(F)Cl)cc1` [Example 99b], with 5.00 to 6.00.
`C[C@](C(=O)NC1CCC(F)(F)CC1)(c1cncnc1)N(C(=O)[C@H](F)Cl)c1ccc(-c2nccs2)cc1` [Example 100a]: the negative logarithm of the IC50 (pIC50) was more than 7.00.
With `C[C@@](C(=O)NC1CCC(F)(F)CC1)(c1cncnc1)N(C(=O)[C@H](F)Cl)c1ccc(-c2nccs2)cc1` [Example 100b], the pIC50 was 6.00 to 7.00.

The experiment is the same for the next values; noted with them: M pro IC50, C-His6-tagged SARS-CoV-2 MPRO 25 nM, 30 min pre-incubation at RT, 60 min at 30° C., 10 doses from 25 μM.
With `C[C@](C(=O)NC1CCC(F)(F)CC1)(c1cncc(F)c1)N(C(=O)[C@H](F)Cl)c1ccc(OC(F)(F)F)cc1` [Example 11a], the negative-log IC50 (pIC50) is more than 7.00.
Same read-out and setting: the value for `C[C@@](C(=O)NC1CCC(F)(F)CC1)(c1cncc(F)c1)N(C(=O)[C@H](F)Cl)c1ccc(OC(F)(F)F)cc1` [Example 11b] was 5.00 to 6.00; that for `C[C@](C(=O)NC1CCC(F)(F)CC1)(c1cncnc1)N(C(=O)[C@H](F)Cl)c1ccc(OC(F)(F)F)cc1F` [Example 26a] was 6.00 to 7.00; that for `C[C@@](C(=O)NC1CCC(F)(F)CC1)(c1cncnc1)N(C(=O)[C@H](F)Cl)c1ccc(OC(F)(F)F)cc1F` [Example 26b] was 5.00 to 6.00.
The same measure, in the same setting: then `C[C@](C(=O)NC1CCOCC1)(c1cncnc1)N(C(=O)[C@H](F)Cl)c1ccc(OC(F)(F)F)cc1F` [Example 27a], with 6.00 to 7.00; and `C[C@](C(=O)NC1CCOCC1)(c1cncnc1)N(C(=O)[C@H](F)Cl)c1ccc(OC(F)(F)C(F)(F)F)cc1` [Example 32a], with more than 7.00.
